Test results from patent US4599331A, “Etianic acids as antiangiogenics” (Syntex (U.S.A.) Inc., priority 1984, dated 1986).
“And” between values parts separate entries of the source, which are not always exact repeats. Identical values can stand only once. Like-named read-outs stand apart in the source and are kept apart here.

How the values were obtained:
[1] = tested on: alkaline phosphatase (APb); assay: alkaline phosphatase (APb) induction in LE II cells; type: cell-based, mouse; conditions: for Emax: Mus musculus, Table 1, about 65 hours, relative to dexamethasone = 1, read-out: Efficacy (DEX = 1) Alk P
Procedure: This is another standard test for glucocorticoid activity.
LE II cells were grown in DMEM plus 10% FCS, at 37° C., in a 10% carbon dioxide atmosphere. Confluent monolayers of cells were trypsinized and seeded at a 1:15 dilution into 6-well Costar cluster dishes. […] In all experiments, DEX, at concentrations of 10^-9 to 10^-6 M, was added to some of the wells as a positive control.
Cell monolayers were washed with PBS and harvested by scraping with a rubber policeman into 400 μl of a buffer of 20 mM Tris-HCl at pH 7.4; 2 mM MgCl2; and 150 mM NaCl together with 1% Triton X-100. Samples were transferred into 1.5 ml Eppendorf centrifuge tubes and placed on ice. The tubes were first vortexed and then centrifuged in the Eppendorf minicentrifuge for 2 minutes. Duplicate 100 μl aliquots of supernatant were placed into 12×75 mm glass test tubes for determination of APb activity, while the rest was saved for protein determination. […] The tubes were incubated in a 37° C. water bath for between 20 to 50 minutes, depending on the activity of the samples. The APb reaction was terminated by the addition of 0.5 ml of […]. The tubes were mixed and 200 μl portions from each tube were transferred in triplicate to a 96 well microtiter plate. The OD410 nm of each well was then determined using a Dynatech plate reader.
[…] of the cell supernatant were transferred to 96 well microtiter plates for protein determination by a modification of the Lowry method. […] The plates were shaken for 1 hour and then the OD630 was determined using a Dynatech plate reader. The protein content for each sample was calculated by comparing the average OD630 reading with those obtained for a bovine serum albumin standard curve.
The alkaline phosphatase activity of in each sample was expressed as μmoles product formed per minute per mg protein in the Alk P column of Tables 1 and 2. Results are expressed as the induction ability of a compound as compared to dexamethasone.

[2] = tested on: tyrosine aminotransferase (TAT); assay: tyrosine aminotransferase (TAT) induction in HTC cells; type: cell-based, rat; conditions: for Emax: from 10^-6 M down, relative to dexamethasone = 1, read-out: Efficacy (DEX = 1) TAT
Procedure: In this example, tyrosine aminotransferase (TAT) activity was determined by a spectrophotometric assay. This enzyme catalyzes the conversion of tyrosine to p-hydroxyphenylpyruvate. This example is a standard in vitro test for glucocorticoid activity.
Addition of base caused the conversion of p-hydroxyphenylpyruvate to p-hydroxybenzaldehyde, which was quantitatively measured by absorbance at 331 nm. HTC cells, the target cells for the compound tested were grown in DMEM+10% FCS. Subconfluent cell cultures were incubated with test compounds in 6 well Costar dishes for 24 or 48 hours. The cells were incubated in either serum-free DMEM or DMEM containing 10% FCS previously filtered over activated charcoal. The cells were harvested in PBS using a rubber policeman, then washed once in PBS by centrifugation and resuspended in a 0.3 ml lysis buffer of 10 mM Tris, 10 mM EDTA and 0.25M sucrose at pH 7.4. The cells were then lysed by three cycles of freeze-thawing using dry ice and a 37° C. waterbath and the cells debris was pelleted by centrifugation for 2 min at 12,000 9 in an Eppendorf centrifuge.
The supernatant was used for a protein determination using either E+K stain or BioRad protein assay kit and TAT activity. 0.1 ml TAT buffer having 50 mM KH2 PO4, 1 mM EDTA, 0.1 mM Dithiothereitol (DTT), and 5 mg/ml BSA at pH 7.6 and 0.1 ml cell extract were mixed in glass tubes. A prewarmed mixture of 200 parts of a 2.3 mg/ml tyrosine solution in 0.05M phosphate buffer, 100 parts 0.125M KH2 PO4, 10 parts of a 0.92 mg/ml and ketoglutarate solution and 1 part of a 0.04 mg/ml pyridoxalphosphate solution had been previously made up. […] of the prewarmed mixture was added to each tube and allowed to react at 37° C. for 15 min. The addition of 0.1 ml 7N […] stopped the reaction. The mixture was then immediately vortexed.
Aldehyde formation was allowed to proceed at 37° C. for 30 min. The amound of aldehyde formed was determined by UV spectroscopic means. Absorbance was read at 331 nm using a solution composed of 0.1 ml TAT buffer, 0.1 ml lysis buffer, 0.7 ml reaction mixture and 0.1 ml 7N KOH as a blank. Optical Density values are linearily corrected for protein content.
As the absolute amount of enzyme induction varies between experiments, results are expressed as percent of the maximal induction obtained with dexamethasone, which was run as a standard in each assay.
In this series, compounds were assayed from 10^-6 M down. Results are expressed in the TAT column of tables 1, and 2 as the induction ability of a compound as compared to dexamethasone; a compound may either be a partial inducer or a superinducer.

[3] = tested on: Epidermal Growth Factor; assay: hamster cheek pouch (HCP) angiogenesis inhibition, EGF stimulus; type: in vivo, Male Syrian Golden hamsters; conditions: 10 μg EGF; for % Inhibition HCP Stimulus Epidermal Growth Factor: Table 1, between 0.5 and 4 mg/kg s.c. daily, each number independent result, average of six animals; for HCP % Inhibition Stimulus EGF: Table 2, compounds given daily at 0.4 mg/kg
Procedure: (§1) Each compound of the series was also tested for anti-angiogenic activity by an in vivo test that measured vascularization in a hamster's cheek pouch in response to either an angiogenic polypeptide growth factor, epidermal growth factor (EGF) or an induced […].
(§2) In this example, the in vivo angiogenesis inhibition activity of etianic acid esters was tested. Male Syrian Golden hamsters, weighing between 120 g and 150 g were anaesthetized by intraperitoneal (I.P.) injection of a rodent anaesthetic mixture consisting of 50 mg/kg ketamine hydrochloride, 5 mg/kg xylazine and 1 mg/kg acepromazine. The left cheek pouch of each animal was everted with a pincet and pinned down to a plexiglass-rubber stage and observed through a Zeiss stereomicroscope. 10 μg of EGF or 3×10^5 Hamster Melanoma RPM1 1846 tumor cells in 10 μl Cibachrome Blue agarose (Amicon) were injected subcutaneously in the left lower quadrant of the pouch with a Hamilton syringe.
(§3) The pouch was then reinserted and animals were kept under observation until recovered from anaesthesia.
(§4) The animals were dosed daily with one test compound, starting one day before stimulus injection and continuing until observation. The test compounds were dissolved in a minimum volume of ethanol and diluted in sterile phosphate buffer solution. […]
(§5) Either five days or twelve days after the EGF or tumor cell injection, animals were anaesthetized by I.P. injection of the rodent anaesthetic mixture. The pouch was everted on the stage and examined under the stereomicroscope. Pictures were taken with a 35 mm using Kodak Tungsten 50 professional films.
(§6) The following subjective scoring was used for evaluating the photographs:
(§7) 1: minimal branching of vessels in the vicinity of injection site.
(§8) 2: new vessels reach injection site, area involved is minimal (<50% of area surrounding injection site).
(§9) 3: many vessels reach and cross injection site, new vessels are tortuous, (>50% of area surrounding injection site).
(§10) 4: "full blown", many tortuous vessels, leakages, hemorrhages, 100% of area around injection site, invasion of new vessels into non-injected areas.
(§11) Results are expressed as the mean of the score. The results are shown in Tables 1 and 2 are percent inhibition of HCP Stimulus.

[4] = tested on: Hamster Melanoma RPM1 1846 tumor cells; assay: hamster cheek pouch (HCP) angiogenesis inhibition, 1846 tumor cell stimulus; type: in vivo, Male Syrian Golden hamsters; conditions: 3×10^5 tumor cells; for % Inhibition HCP Stimulus 1846: Table 1, between 0.5 and 4 mg/kg s.c. daily, each number independent result, average of six animals; for HCP % Inhibition Stimulus 1846: Table 2, compounds given daily at 0.4 mg/kg
Procedure: as §1, §2, §3, §4, §5, §6, §7, §8, §9, §10
(§12) In the case of the tumor, tumor size was also determined. (See Table 4)
as §11

[5] = tested on: Hamster Melanoma RPM1 1846 tumor cells; assay: Inhibition of tumor growth (2 week assay); type: in vivo, Male Syrian Golden hamsters; conditions: Table 3, dose 0.8 mg/kg; for Angiogenesis score: mean of score 0 (no new vessels) to 4 (full blown), untreated 3.1 [A], 2.9 [B]; for Tumor area Mn (mm^2): untreated 40.7 ± 16.2 [A], 27.5 ± 15.3 [B]
Procedure: as §2, §3
The animals were dosed daily with one test compound, starting one day before stimulus injection and continuing until observation. The test compounds were dissolved in a minimum volume of ethanol and diluted in sterile phosphate buffer solution. Then between 0.5 and 4 mg/kg of the test compound was injected subcutaneously.
as §5, §6, §7, §8, §9, §10, §12, §11

[6] = Rattus norvegicus, Table 1, 24 or 48 hours
[7] = Rattus norvegicus, Table 2, 24 or 48 hours

With C[C@@H]1C[C@H]2[C@@H]3CCC4=CC(=O)C=C[C@]4(C)[C@@]3(F)[C@@H](O)C[C@]2(C)[C@@]1(O)C(=O)CO [Dexamethasone, dexamethasone, reference compound] the “incubation time to maximum induction of alkaline phosphatase activity” value ([1]; preliminary experiments) was 48 to 72 h, the “concentration inducing maximal TAT activity” value [2] was 10^-7 M and the EC50 ([2]; Rattus norvegicus) was about 20 nM.
With CCC(=O)O[C@]1(C(=O)OC)[C@@H](C)C[C@H]2[C@@H]3CC(F)C4=CC(=O)C=C[C@]4(C)[C@@]3(F)[C@@H](O)C[C@@]21C (stereo partly shown) [compound 2] the Emax [1] was 90%, the “% Inhibition HCP Stimulus Epidermal Growth Factor” value [3] was 100% and the “% Inhibition HCP Stimulus 1846” value [4] was 33% and 35%. For the same molecule, the Emax [2, 6] was 80%, the “Angiogenesis % Inh.” value [5] was 35% and the “Tumor area % (inhibition of tumor growth)” value [5] was 58%. For the same molecule, the Angiogenesis score [5] was 1.9 and the “Tumor area Mn (mm^2)” value [5] was 11.6 ± 10.3 mm^2.
COC(=O)[C@@]1(OC=O)[C@H](C)C[C@H]2[C@@H]3CC(F)C4=CC(=O)C=C[C@]4(C)[C@@]3(F)[C@@H](O)C[C@@]21C (stereo partly shown) [compound 5] was tested, and the “% Inhibition HCP Stimulus Epidermal Growth Factor” value [3] was -25%.
For COC(=O)[C@@]1(OC(C)=O)[C@H](C)C[C@H]2[C@@H]3CC(F)C4=CC(=O)C=C[C@]4(C)[C@@]3(F)[C@@H](O)C[C@@]21C (stereo partly shown) [compound 6], the “% Inhibition HCP Stimulus Epidermal Growth Factor” value [3] was 23% and the Emax [2, 6] was 70%.
With CCCCC(=O)O[C@]1(C(=O)OC)[C@H](C)C[C@H]2[C@@H]3CC(F)C4=CC(=O)C=C[C@]4(C)[C@@]3(F)[C@@H](O)C[C@@]21C (stereo partly shown) [compound 10] the Emax [1] was 70%, the “% Inhibition HCP Stimulus Epidermal Growth Factor” value [3] was 100% and the “% Inhibition HCP Stimulus 1846” value [4] was 24%. The Emax [2, 6] was 90%, the “Angiogenesis % Inh.” value [5] was 23% and the “Tumor area % (inhibition of tumor growth)” value [5] was 45%. The Angiogenesis score [5] was 2.4 and the “Tumor area Mn (mm^2)” value [5] was 22.5 ± 13.7 mm^2.
CCC(=O)O[C@]1(C(=O)SC)[C@@H](C)C[C@H]2[C@@H]3CC(F)C4=CC(=O)C=C[C@]4(C)[C@@]3(F)C(O)C[C@@]21C (stereo partly shown) [compound 11] was tested, and the “HCP % Inhibition Stimulus EGF” value [3] was 100%, the “HCP % Inhibition Stimulus 1846” value [4] was 28% and the Emax [2, 7] was 140%.
With CCCC(=O)O[C@]1(C(=O)SC)[C@@H](C)C[C@H]2[C@@H]3CCC4=CC(=O)C=C[C@]4(C)[C@@]3(F)C(O)C[C@@]21C (stereo partly shown) [compound 12] the “HCP % Inhibition Stimulus EGF” value [3] was 37% and the Emax [2, 7] was 130%.
With CCCC(=O)O[C@]1(C(=O)SC)[C@@H](C)C[C@H]2[C@@H]3CC(F)C4=CC(=O)C=C[C@]4(C)[C@@]3(F)[C@@H](O)C[C@@]21C (stereo partly shown) [compound 13] the “HCP % Inhibition Stimulus EGF” value ([3]; 0.4 mg/kg) was 94% and 84%, the “HCP % Inhibition Stimulus 1846” value ([4]; 0.4 mg/kg) was 40% and 53% and 45% and the Emax [2, 7] was 90%. For the same molecule, the “Angiogenesis % Inh.” value [5] was 42%, the “Tumor area % (inhibition of tumor growth)” value [5] was 78% and the Angiogenesis score [5] was 1.8. The “Tumor area Mn (mm^2)” value [5] was 9.1 ± 3 mm^2.
CCCCC(=O)O[C@]1(C(=O)SC)[C@@H](C)C[C@H]2[C@@H]3CC(F)C4=CC(=O)C=C[C@]4(C)[C@@]3(F)C(O)C[C@@]21C (stereo partly shown) [compound 14] was tested, and the “HCP % Inhibition Stimulus EGF” value ([3]; 0.4 mg/kg) was 22% and 42%, the “HCP % Inhibition Stimulus 1846” value [4] was 16% and the Emax [2, 7] was 60%.
CCC(=O)O[C@]1(C(=O)SC)[C@H](C)C[C@H]2[C@@H]3CCC4=CC(=O)C=C[C@]4(C)[C@@]3(F)C(O)C[C@@]21C (stereo partly shown) [compound 15] was tested, and the “HCP % Inhibition Stimulus EGF” value [3] was 30%.
CCC(=O)O[C@]1(C(=O)SC)[C@H](C)C[C@H]2[C@@H]3CC(F)C4=CC(=O)C=C[C@]4(C)[C@@]3(F)C(O)C[C@@]21C (stereo partly shown) [compound 16] was tested, and the “HCP % Inhibition Stimulus EGF” value [3] was 46%, the “HCP % Inhibition Stimulus 1846” value ([4]; 0.4 mg/kg) was 25% and 35% and the Emax [2, 7] was 120%.
In the case of CCCC(=O)O[C@]1(C(=O)SC)[C@H](C)C[C@H]2[C@@H]3CC(F)C4=CC(=O)C=C[C@]4(C)[C@@]3(F)C(O)C[C@@]21C (stereo partly shown) [compound 18], the “HCP % Inhibition Stimulus 1846” value [4] is reported as 16% and the Emax [2, 7] is reported as 130%.
